In patent publication US20080125496A1, “ANTIMICROBIAL FLAVOR AND ORAL CARE COMPOSITION CONTAINING THE SAME” (TAKASAGO INTERNATIONAL CORPORATION, priority 2001, published 2008):
Converted amounts (≈) assume the structure as drawn. Where two headings read alike, the source gives them in different places.

Columns and labels:
Format in all cases: cell-based
[1] = system: Streptococcus mutans JCM 5175; assay: MIC by agar plate dilution method, Su-1; settings: for MIC: Streptococcus mutans, read-out: MIC Su-1 (caries-related bacteria)
Method: (§1) The minimum inhibitory activities of the antimicrobial flavors of the invention on anaerobic oral bacteria were measured by an agar plate dilution method.
(§2) All the test strains were obtained from Riken (The Institute of Physical and Chemical Research). The names and abbreviations of the strains are shown in Table 1 below (The abbreviations are used in the following description).
(§3) Each test microorganism kept frozen (−80° C.) in glycerol at a concentration of 25% was thawed. A 100 μl portion of the suspension was inoculated into 10 ml of a liquid medium. A Gifu university anaerobic medium (GAM) (Nissui Pharmaceutical Co., Ltd) having added thereto Hemin (Tokyo Kasei) and Menadione (Sigma) was used for Su-1 and Fn-1. Schaedler Broth (BBL) having added thereto Hemin and Menadione was used for the other strains. The culture was anaerobically incubated at 37° C. for 72 hours by using BBL Gas Pack Anaerobic System. After the cultivation, the microbial cell suspension of Su-1 was 10-fold diluted to prepare an inoculum. The cultures of Fn-1 and Pg-1 were used as such as an inoculum. The cultures of Pt-1, Aa-1, and Av-1 were subjected to centrifugation, and the separated microbial cells were suspended in 2 ml of sterilized physiological saline to prepare the respective inoculums.
(§4) An agar medium prepared by adding 2% agar (Difco), Hemin, and Menadione to Trypticase Soy Broth (BBL) was used. A test sample (antimicrobial flavor) was dissolved in ethanol to prepare 2-fold serial dilutions. To 10 ml of the agar medium was added 100 μl of each dilution and stirred well. The agar medium was transferred to a petri dish (diameter: 9 cm) and solidified at room temperature. The solidified agar medium was inoculated with 5 μl of the inoculum by means of a multipoint inoculator (Microplanter MIT-P27, supplied by Sakuma Seisakusho), followed by culturing at 37° C. for 72 hours under anaerobic conditions. The growth of the test microorganism was compared with a blank petri dish (the agar medium to which 100 μl of ethanol had been added). The lowest sample concentration that inhibited growth was taken as MIC (ppm).
(§5) Antimicrobial activities (MIC; ppm) of the aromahygiene base (AHB) prepared in (1) and the antimicrobial flavor compositions prepared in (2) (Examples 2-1 to 2-3) and Comparative Examples 2-1 to 2-3 were measured in the same manner as in Example 1 (2).

[2] = system: Actinomyces naeslundii JCM 8350; assay: MIC by agar plate dilution method, Aa-1; settings: for MIC: Actinomyces naeslundii, read-out: MIC Aa-1 (caries-related bacteria)
Method: as §1, §2, §3, §4, §5

[3] = system: Actinomyces viscosus JCM 8352; assay: MIC by agar plate dilution method, Av-1; settings: for MIC: Actinomyces viscosus, read-out: MIC Av-1 (caries-related bacteria)
Method: as §1, §2, §3, §4, §5

[4] = system: Fusobacterium nucleatum JCM 6328; assay: MIC by agar plate dilution method, Fn-1; settings: for MIC: Fusobacterium nucleatum, read-out: MIC Fn-1 (paradentosis-related bacteria)
Method: as §1, §2, §3, §4, §5

[5] = system: Porphyromonas gingivalis JCM 8525; assay: MIC by agar plate dilution method, Pg-1; settings: for MIC: Porphyromonas gingivalis, read-out: MIC Pg-1 (paradentosis-related bacteria; head Fg-1 in Tables 2 and 3)
Method: as §1, §2, §3, §4, §5

[6] = system: Prevotella intermedia JCM 6322; assay: MIC by agar plate dilution method, Pt-1; settings: for MIC: Prevotella intermedia, read-out: MIC Pt-1 (paradentosis-related bacteria)
Method: as §1, §2, §3, §4, §5

[7] = agar medium, 37° C., 72 hours, anaerobic conditions
[8] = JCM5175, agar medium, 37° C., 72 hours, anaerobic conditions
[9] = JCM8350, agar medium, 37° C., 72 hours, anaerobic conditions
[10] = JCM8352, agar medium, 37° C., 72 hours, anaerobic conditions
[11] = JCM6328, agar medium, 37° C., 72 hours, anaerobic conditions
[12] = JCM8525, agar medium, 37° C., 72 hours, anaerobic conditions
[13] = JCM6322, agar medium, 37° C., 72 hours, anaerobic conditions

Compound	MIC Su-1 (caries-related bacteria) [1, 7]	MIC Aa-1 (caries-related bacteria) [2, 7]	MIC Av-1 (caries-related bacteria) [3, 7]	MIC Fn-1 (paradentosis-related bacteria) [4, 7]	MIC Pg-1 (paradentosis-related bacteria; head Fg-1 in Tables 2 and 3) [5, 7]	MIC Pt-1 (paradentosis-related bacteria) [6, 7]	MIC [1, 8]	MIC [2, 9]	MIC [3, 10]	MIC [4, 11]	MIC [5, 12]	also measured
CC(C)Cc1ccc2ncccc2c1 [Isobutyl quinoline]	1000 ppm	250 ppm	250 ppm	1000 ppm	62.5 ppm	250 ppm						
O=C1CCCCCCCCCCCCCCO1 [Cyclopentadecanolide]	>1000 ppm	>1000 ppm	>1000 ppm	>1000 ppm	<62.5 ppm	<62.5 ppm						
O=C1CCCC=CCCCCCCCCCC1 [5-cyclohexadecen-1-one]							> 1000 µg/mL	> 1000 µg/mL	> 1000 µg/mL	> 1000 µg/mL	15.6 µg/mL (≈ 66 µM)	MIC [6, 13]: 31.3 µg/mL (≈ 132 µM)
CCC(O)/C(C)=C/C1(C)CC2C=CC1C2 (stereo not shown) [Methyl sandeflor]	500 ppm	250 ppm	125 ppm	250 ppm	62.5 ppm	62.5 ppm						
CC(=O)C1=C(C)[C@@H]2C[C@@]3(C1)[C@H](C)CC[C@H]3C2(C)C [Acetyl cedrene]	250 ppm	31.3 ppm	31.3 ppm	500 ppm	15.6 ppm							
COc1ccccc1C=CC=O [o-Methoxycinnamic aldehyde]	250 ppm	250 ppm	250 ppm	250 ppm	7.8 ppm	62.5 ppm						
CC1(C)CCC[C@]2(C)[C@H]3CCO[C@]3(C)CC[C@@H]12 [Ambroxan]	>1000 ppm	>1000 ppm	>1000 ppm	>1000 ppm	31.3 ppm	31.3 ppm						
CC1=CCC(C/C=C(\C)CO)C1(C)C (stereo not shown) [Santalinol]	250 ppm	62.5 ppm	62.5 ppm	125 ppm	15.6 ppm	31.3 ppm						
CCCc1ccc(O)c(OC)c1 [Dihydroeugenol]	1000 ppm	500 ppm	500 ppm	500 ppm	62.5 ppm	62.5 ppm						
CC1=CCC(CCC(C)CO)C1(C)C (stereo not shown) [Brahmanol]	250 ppm	125 ppm	125 ppm	250 ppm	31.3 ppm	31.3 ppm						
C[C@@H]1CC[C@H]2C(C)(C)[C@H]3C[C@@]12CC[C@@]3(C)O [Cedrol]							> 1000 µg/mL	> 1000 µg/mL	> 1000 µg/mL	> 1000 µg/mL	31.3 µg/mL (≈ 141 µM)	MIC [6, 13]: 31.3 µg/mL (≈ 141 µM)
CCCCCCCCCCCC=O [Dodecanal]							500 µg/mL (≈ 2710 µM)	500 µg/mL (≈ 2710 µM)	500 µg/mL (≈ 2710 µM)	125 µg/mL (≈ 678 µM)	62.5 µg/mL (≈ 339 µM)	MIC [6, 13]: 62.5 µg/mL (≈ 339 µM)
COC(=O)c1c(C)cc(O)c(C)c1O [Methyl atrarate]	>1000 ppm	62.5 ppm	62.5 ppm	125 ppm	31.3 ppm	62.5 ppm						
CC(C=O)Cc1ccc2c(c1)OCO2 (stereo not shown) [Helional]	1000 ppm	250 ppm	500 ppm	1000 ppm	125 ppm	1000 ppm						
COC(/C=C/c1ccccc1)OC [Cinnamic aldehyde dimethyl acetal]	250 ppm	125 ppm	250 ppm	500 ppm	<15.6 ppm	62.5 ppm						
O=C1CCCCCCCCCCCCCC1 [Cyclopentadecanone]												MIC ([1]; JCM5175, 72 h): > 1000 µg/mL; MIC ([2]; JCM8350, 72 h): > 1000 µg/mL; MIC ([3]; JCM8352, 72 h): > 1000 µg/mL; MIC ([4]; JCM6328, 72 h): > 1000 µg/mL; MIC ([5]; JCM8525, 72 h): < 62.5 µg/mL; MIC ([6]; JCM6322, 72 h): < 62.5 µg/mL
C=C(C)[C@@H]1CCC2=CC(=O)C[C@@H](C)[C@]2(C)C1 [Nootkatone]							1000 µg/mL (≈ 4580 µM)	62.5 µg/mL (≈ 286 µM)	62.5 µg/mL (≈ 286 µM)	500 µg/mL (≈ 2290 µM)	7.8 µg/mL (≈ 35.7 µM)	
CCCCCCCCC=CCC=O [3-Dodecenal]							1000 µg/mL (≈ 5490 µM)	500 µg/mL (≈ 2740 µM)	500 µg/mL (≈ 2740 µM)	250 µg/mL (≈ 1370 µM)	62.5 µg/mL (≈ 343 µM)	MIC [6, 13]: 31.3 µg/mL (≈ 172 µM)
CC(C=O)Cc1ccc(C(C)(C)C)cc1 (stereo not shown) [Lilial]	500 ppm	125 ppm	500 ppm	500 ppm	62.5 ppm	62.5 ppm						
CC(=O)c1cc2c(cc1C)C(C)(C)C(C)CC2(C)C (stereo not shown) [Tonalid]												MIC ([1]; JCM5175, 72 h): > 1000 µg/mL; MIC ([2]; JCM8350, 72 h): > 1000 µg/mL; MIC ([3]; JCM8352, 72 h): > 1000 µg/mL; MIC ([4]; JCM6328, 72 h): > 1000 µg/mL; MIC ([5]; JCM8525, 72 h): 15.6 µg/mL (≈ 60.4 µM); MIC ([6]; JCM6322, 72 h): 62.5 µg/mL (≈ 242 µM)
CC1=CCC(CCC(C)C(C)O)C1(C)C (stereo not shown) [Sandalore]	250 ppm	125 ppm	125 ppm	125 ppm	31.3 ppm	31.3 ppm						
CC/C(=C\CC1CC=C(C)C1(C)C)CO (stereo not shown) [Bacdanol]	125 ppm	125 ppm	62.5 ppm	62.5 ppm	31.3 ppm							
CCCCCCCCCCC=O [Undecanal]							1000 µg/mL (≈ 5870 µM)	500 µg/mL (≈ 2940 µM)	500 µg/mL (≈ 2940 µM)	500 µg/mL (≈ 2940 µM)	125 µg/mL (≈ 734 µM)	
CC1CCC(C(C)C)C(OCC(O)CO)C1 (stereo not shown) [3-Menthoxypropane-1,2-diol]							1000 µg/mL (≈ 4340 µM)	500 µg/mL (≈ 2170 µM)	62.5 µg/mL (≈ 271 µM)	1000 µg/mL (≈ 4340 µM)	250 µg/mL (≈ 1090 µM)	
C=C(C)[C@@H]1CC=C(CO)CC1 [Perilla alcohol]							500 µg/mL (≈ 3280 µM)	250 µg/mL (≈ 1640 µM)	500 µg/mL (≈ 3280 µM)	500 µg/mL (≈ 3280 µM)	125 µg/mL (≈ 821 µM)	
CCCCCCCC/C=C/C=O [Trans-2-undecenal]							250 µg/mL (≈ 1490 µM)	125 µg/mL (≈ 743 µM)	125 µg/mL (≈ 743 µM)	1000 µg/mL (≈ 5940 µM)		
